Experimental data published in patent publication US20230399361A1, “MACROCYCLIC PEPTIDES” (UNIVERSITY OF NOTRE DAME DU LAC, priority 2022, published 2023).
“Also recorded” adds a separate entry of the source. *1 amine or outer side, *2 acyl side, *3 side chain or, on linkers, in order; H or OH if unused. Where a SMILES comes first, the peptide text is derived from it. Primed or numbered codes have the meaning given here. [ ]: non-standard residue; d: D form. The star is where a group is joined. aIle′ = Ile with backbone amide N-amino (hydrazide NNH2), CC[C@H](C)[C@@H](C(=O)[*:2])N(N)[*:1]; aVal = Val with backbone amide N-amino (hydrazide NNH2), CC(C)[C@@H](C(=O)[*:2])N(N)[*:1]; X2 = NN([C@@H](Cc1ccc(O)cc1)C(=O)[*:2])[*:1]; X1 = CC[C@H](C)[C@@H](C(=O)[*:2])N(N)[*:1]; N(NH2)LysNH2 = NCCCC[C@@H](C(N)=O)N(N)*; X3 = CC(C)[C@@H](C(=O)[*:2])N(N)[*:1]

Legend:
[1] = 24 h, 500 μM
Protocol: (§1) Human Serum Stability Assay. The stability of NAPs in 25% human serum (MilliporeSigma) was assessed by HPLC. The reaction was started by adding NAPs at a final concentration of 500 μM in pre-warmed serum. The mixture was incubated at 37° C. for 24 h. A 100 μL aliquot of the reaction mixture was taken out at 0, 1, 4, and 24 h and was mixed with an equal volume of 20% trichloroacetic acid and incubated at 4° C. for 15 min to precipitate serum proteins. After centrifugation at 12,000 rpm for 10 min, the supernatant was collected and mixed with an internal standard (1 mg/mL Cbz-Tyr-OH dissolved in MeCN) and stored at −20° C. Samples were then analyzed by LC-MS, and the percentage of peptide remaining was calculated by integrating peaks.

[2] = molecular target: T1, tauP301L fibrils (Homo sapiens, UniProt P10636, P618L); experiment: Cellular seeding assay with pre-formed tauP301L fibrils, HEK293 tau-RD(LM)-YFP biosensor cells; format: cell-based; details: for inhibition of propagation of pre-formed tauP301L fibrils: mature fibrils incubated with NAP 36 h before cells; for IC50: pre-formed 0.19 μM tauP301L fibrils treated 36 h with NAP, cells 48 h, three repeated experiments, read-out: fibril capping IC50 in cells; for inhibition of endogenous tau aggregation without co-incubation: without the 36 h inhibitor + mature fibril co-incubation period
T1 construct: we expressed and purified full-length tau featuring a P301L mutation; His6 (N); made in house; host or cells: E. coli BL21 (DE3)
Protocol: Given that pathogenic tau can be secreted from cells in various forms (as oligomers, aggregates, or mature fibrils), we tested whether NAPs could block the cellular transmission of pre-formed fibrils. In this experiment, NAPs were incubated with mature tauP301L fibrils for 36 h prior to treatment of cells expressing tau-RD(LM)-YFP. […] We determined a fibril capping IC50 in cells in the 5 μM range across three repeated experiments (FIG. 4).
We then considered the possibility of di-NAPs 12 and 13 entering cells and inhibiting seeding by interacting with endogenous tau-RD(LM)-YFP, rather than with extracellular pre-formed fibrils. We thus repeated the experiment without the 36 h inhibitor+mature fibril co-incubation period.
For seeding experiments with fibrillar tau, recombinant tauP301L fibrils were prepared as described above (see the section on fibril formation) and sonicated for 3 min prior to use in this assay. In a reaction volume of 40, 8 μL of fibrils was diluted with 31 μL of low-serum Opti-MEM medium and then mixed with 1 μL of NAPs (DMSO concentration was constant across various concentrations of inhibitors). The reaction mixture was then allowed to incubate at 37° C. for 36 h, then mixed with 2 μL of Lipofectamine 2000, and further incubated for 20 min at rt. A 10 μL aliquot of this mixture was then added to 90 μL of cells (15,000 cells/well). Cells were incubated for additional 48 h before taking measurements on a BioTek Cytation 5 cell imager and a microplate reader. 10×10 pictures/well were taken at 20× magnification under an FITC channel, and the punctate counting were carried out using built-in software. […] Every experiment included control wells (no tau, no heparin, and no NAP). All data plots were generated with SigmaPlot. IC50 values were calculated by fitting the data set using the sigmoidal logistic four-parameter equation. Error bars represent standard deviation from technical replicates.

[3] = molecular target: T2, Aβ42 (Homo sapiens, UniProt P05067); experiment: ThT fluorescence assay with Aβ42; format: biochemical
T2 construct: Incubation of synthetic, full-length Aβ42 (40 μM)
Source text: A peptidomimetic approach to tau inhibition offers prospects for achieving selectivity over other amyloids rich in f structure. As a preliminary test, we selected our best-performing aggregation-inhibitory tau mimic, 12, and determined its effect on Aβ42 aggregation in vitro (FIG. 6). […] We similarly observed no effect on aggregation kinetics at any of the concentrations tested.

[4] = molecular target: T3, tauP301L (Homo sapiens, UniProt P10636, P618L); experiment: Transmission electron microscopy of heparin-induced tauP301L fibrils; format: biochemical; details: 10 μM tauP301L + heparin, 20 μM NAP (2-fold molar excess), 96 h
T3 construct: we expressed and purified full-length tau featuring a P301L mutation; His6 (N); made in house; host or cells: E. coli BL21 (DE3)
Protocol: This is consistent with previous reports showing that the endpoint ThT fluorescence and fibrilization lag time for full-length tau are particularly resistant to perturbation by inhibitors. […] To confirm the effect of NAPs on the growth of mature tau fibrils, we used transmission electron microscopy (TEM) to visualize the morphology and maturity of fibrillar species. Heparin-induced tauP301L fibrils were allowed to grow over 96 h in the presence or absence of inhibitors. Untreated tauP301L afforded large, helical, and amyloid-like filamentous fibrils.
Inhibition of full-length tau fibrilization by mxyl-NAPs in TEM. To confirm the results from ThT assays, we used TEM to visualize tauP301L fibrils in the absence or presence of synthesized NAPs. As expected, heparin-induced tauP301L formed dense networks of mature fibrils (FIG. 8).
Transmission Electron Microscopy. For analyzing fibrils by TEM, aggregation was carried out under conditions similar to the assay performed above but with ThT excluded and a final reaction volume of 100 μL. Samples were incubated in a microcentrifuge tube for 4 days at 37° C. with a mixing speed of 100 rpm. A 10 μL aliquot of the sample was then applied to 400-meshed formvar-/carbon-coated copper grids and negative-stained with 2% uranyl acetate. Micrographs were obtained on a JEOL 2011 transmission electron microscope at 200 kV.

[5] = in vitro; details: human, serum, intact peptide in 25% human serum
Protocol: as §1

[6] = system: HEK293 cells stably expressing tau-RD (LM)-YFP
Protocol: MTT cell viability assays were carried out on both HEK293 cells stably expressing tau-RD (LM)-YFP and SH-SY5Y cells. Cells were cultured in the DMEM/F12 complete medium containing 10% FBS, 1% penicillin/streptomycin, and 1% Glutamax in a 75 cm^2 cell culture flask under 5% CO2 at 37° C. Cell viability was determined using the MTT reduction assay. Briefly, 15,000 cells/well were plated in a 96-well tissue culture plate and were allowed to incubate overnight in a CO2 incubator. The medium was aspirated and the NAP inhibitor prepared in complete medium was added at a given final concentration. The plate was then allowed to incubate for additional 48 h in a CO2 incubator, and the medium was aspirated again and replaced with 0.5 mg/mL MTT prepared in complete medium and incubated for additional 3 h. The medium was then replaced with DMSO to dissolve formazan crystals, and the absorbance was measured at 570 nm using a Synergy H1 microplate reader. Each data set was collected from technical replicates on at least 2 different days.

T3 sequence (P10636 1-383 isoform P10636-6 P243L): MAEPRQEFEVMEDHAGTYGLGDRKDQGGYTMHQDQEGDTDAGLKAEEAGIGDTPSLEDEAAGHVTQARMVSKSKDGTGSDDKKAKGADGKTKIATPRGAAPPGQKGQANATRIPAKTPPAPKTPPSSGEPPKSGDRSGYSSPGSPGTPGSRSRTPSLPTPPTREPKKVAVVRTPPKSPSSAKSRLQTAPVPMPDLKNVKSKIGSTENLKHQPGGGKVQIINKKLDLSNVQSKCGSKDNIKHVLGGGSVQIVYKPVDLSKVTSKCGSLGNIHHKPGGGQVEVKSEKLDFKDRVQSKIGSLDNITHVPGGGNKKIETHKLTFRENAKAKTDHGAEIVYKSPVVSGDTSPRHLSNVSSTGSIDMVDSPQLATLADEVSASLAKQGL
T1 sequence (P10636 1-383 isoform P10636-6 P243L): as above
T2 sequence (P05067 672-713 limits assumed): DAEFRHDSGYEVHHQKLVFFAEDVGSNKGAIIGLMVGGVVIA

Compound | intact peptide in 25% human serum [1] | inhibition of propagation of pre-formed tauP301L fibrils [2] | IC50 [2] | inhibition of endogenous tau aggregation without co-incubation [2] | effect on Aβ42 aggregation (ThT) ([3]; 40 μM Aβ42, up to 4-fold molar excess (160 μM)) | effect on Aβ42 aggregation kinetics ([3]; any of the concentrations tested) | selectivity for tau over Aβ42 ([3]; in vitro) | tauP301L fibril morphology by TEM [4] | remaining at 24 h, 500 μM [5] | toxicity to HEK293 biosensor cells in seeding experiments [6]
CC[C@H](C)[C@@H](C(=O)N[C@H](C(=O)N(N)[C@@H](Cc1ccc(O)cc1)C(=O)N[C@@H](CCCCN)C(N)=O)C(C)C)N(N)C(=O)[C@H](CCC(N)=O)NC(=O)[C@@H](NC(C)=O)C(C)C [Compound 12, Ac-Val-Gln-aIle-Val-aTyr-Lys-NH2] (Ac-VQ[X1]V[X2]K-NH2) | > 80% | effectively inhibit propagation in a dose-dependent manner | ~5 µM | failed to inhibit endogenous tau aggregation | no inhibitory effect | no effect | in vitro selectivity for tau over Aβ42 | particularly effective at attenuating fibril growth; also recorded: non-fibrillary amorphous aggregates similar to control | > 83% | did not result in detectable toxicity
CC[C@H](C)[C@H](NC(=O)[C@H](CCC(N)=O)NC(=O)[C@@H](NC(C)=O)C(C)C)C(=O)N(N)[C@H](C(=O)N[C@@H](Cc1ccc(O)cc1)C(=O)N(N)[C@@H](CCCCN)C(N)=O)C(C)C [Compound 13, Ac-Val-Gln-Ile-aVal-Tyr-aLys-NH2] (Ac-VQI[X3]Y-{N(NH2)LysNH2}) | > 80% | effectively inhibit propagation in a dose-dependent manner | ~5 µM | failed to inhibit endogenous tau aggregation |  |  |  | particularly effective at attenuating fibril growth; also recorded: non-fibrillary amorphous aggregates similar to control | > 83% | did not result in detectable toxicity
Ac-aVal-Gln-aIle-Ile-Asn-Lys-NH2 (Ac-[aVal]Q[aIle′]INK-NH2; SMILES CC[C@H](C)[C@H](NC(=O)[C@H]([C@@H](C)CC)N(N)C(=O)[C@H](CCC(N)=O)NC(=O)[C@H](C(C)C)N(N)C(C)=O)C(=O)N[C@@H](CC(N)=O)C(=O)N[C@@H](CCCCN)C(N)=O) [Compound 4] |  | generally ineffective |  |  |  |  |  | particularly effective at attenuating fibril growth; also recorded: non-fibrillary amorphous aggregates similar to control |  | 
